Laboratory results published in the NIST ThermoML archive (doi:10.1021/je800021r).
Several values for one entry are separate records, joined by “and”; a condition that tells them apart may be missing. Identical values can stand only once. Numbers after ± are expanded uncertainties.

Conditions: Liquid, Ebulliometric method (Recirculating still)

SMILES	vapor or sublimation pressure (364.51 K)	vapor or sublimation pressure (364.5 K) [kPa]	vapor or sublimation pressure (364.52 K) [kPa]
CCC(C)O (configuration not stated) [butan-2-ol]	74.1 ± 1.4 kPa		
CC(C)(C)O [2-methylpropan-2-ol]		142.6 ± 1.5	
CC(C)O [propan-2-ol]	144.2 ± 1.5 kPa		
CO [methanol]	267.5 ± 1.8 kPa		
CC(C)C [2-methylpropane]	1686.4 ± 7.4 kPa and 1686.3 ± 7.4 kPa	1685.6 ± 7.4	1686.3 ± 7.4
